Reference: ChEMBL document CHEMBL2380300, “Identification of new peptide amides as selective cathepsin L inhibitors: the first step towards selective irreversible inhibitors?” (Bioorg Med Chem Lett, 2013)

How the values were obtained:
Homo sapiens = organism: Homo sapiens; experiment: Selectivity ratio of Ka for recombinant cathepsin-L (unknown origin) to Ka for recombinant cathepsin-B (unknown origin)
Cathepsin B = Cathepsin B (Homo sapiens, UniProt P07858); experiment: Irreversible inhibition of recombinant cathepsin-B (unknown origin) using Z-Arg-Arg-AMC as substrate
Procathepsin L = Procathepsin L (Homo sapiens, UniProt P07711); experiment: Irreversible inhibition of recombinant cathepsin-L (unknown origin) using Z-Phe-Arg-AMC as substrate
Sequence of Procathepsin L (P07711 114-333 limits assumed): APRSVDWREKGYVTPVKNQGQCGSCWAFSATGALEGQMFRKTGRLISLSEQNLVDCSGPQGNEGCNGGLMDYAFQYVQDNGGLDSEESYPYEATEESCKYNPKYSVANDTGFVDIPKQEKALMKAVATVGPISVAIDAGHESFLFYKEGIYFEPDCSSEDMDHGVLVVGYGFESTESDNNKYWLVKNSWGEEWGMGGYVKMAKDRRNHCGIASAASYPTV

Row | Compound | Ratio (Homo sapiens) | Ka (Cathepsin B) | Ka (Procathepsin L)
1 | Cc1cccc(C)c1C(=O)OCC(=O)[C@H](CCCCN)NC(=O)[C@H](Cc1ccccc1)NC(=O)[C@H](CCCNC(=N)N)NC(=O)OCc1ccccc1 | 11.5 | 0.76 ×10⁵ /s/M | 8.75 ×10⁵ /s/M
2 | Cc1cccc(C)c1C(=O)OCC(=O)[C@H](CCCCN)NC(=O)[C@H](Cc1ccccc1)NC(=O)OCc1ccccc1 | 7.8 | 0.38 ×10⁵ /s/M | 2.96 ×10⁵ /s/M
3 | Cc1cccc(C)c1C(=O)OCC(=O)[C@H](CCCCN)NC(=O)[C@H](Cc1ccccc1)NC(=O)[C@H](CCCCN)NC(=O)OCc1ccccc1 | 0.3 | 8.22 ×10⁵ /s/M | 2.52 ×10⁵ /s/M
4 | Cc1cccc(C)c1C(=O)OCC(=O)[C@H](CCCCN)NC(=O)[C@H](Cc1ccccc1)NC(=O)[C@H](Cc1c[nH]c2ccccc12)NC(=O)OCc1ccccc1 | 6.9 | 0.57 ×10⁵ /s/M | 3.92 ×10⁵ /s/M
5 | Cc1cccc(C)c1C(=O)OCC(=O)[C@H](CCCCN)NC(=O)[C@H](Cc1ccccc1)NC(=O)[C@H](CC(C)C)NC(=O)OCc1ccccc1 | 2 | 1.36 ×10⁵ /s/M | 2.69 ×10⁵ /s/M
